According to EP1530968A1, “Galangin components for the maintenance of bone health and/or treatment, alleviaton and/or prevention of bone disorder” (N.V. Nutricia, priority 2003, dated 2005):
Marks after values point to notes of the source that are not given here.

Assays:
BMP receptor = experiment: BRE-Luciferase reporter assay in transiently transfected KS483 cells; format: cell-based, mouse; conditions: 48h
Method: (§1) Mouse pre-osteoblastic cell line KS483 was maintained in phenol red-free α-MEM containing 10% non-charcoal-treated FBS and penicillin/streptomycin. Cells were seeded in 24-well plates at a density of 1.6x10^4 cells/well, and cultured in phenol red-free α-MEM supplemented with penicillin/streptomycin and 10% charcoal-treated FBS. After 24 hours, cells were transiently transfected with 0.25 µg luciferase reporter (see below) using a lipid-based FuGENE 6 transfection reagent according to the manufacturer's recommendations (Roche, Almere, Netherlands). Cells were transfected with luciferase reporter, i.e. either estrogen-receptor-responsive element (ERE-Luciferase) or BMP-receptor-responsive element (BRE-Luciferas), hereinafter jointly referred to as luciferase reporter. Transfection efficiency was measured by co-transfection of 25 ng of SV40-Renilla control vector.. The transfection medium was changed after 18 hours into new α-MEM, containing penicillin/streptomycin and 10% charcoal-treated FBS. […] After 48h, cells were washed twice with PBS and frozen at -20°C. Luciferase activity was determined by measuring bioluminescence. Luciferase activity was expressed as fold induction ± SEM, which was corrected for transfection efficiency using sv40-renilla luciferase activity. The measured luciferase activity is indicative for the extent of stimulation of the estrogen receptor or BMP receptor by the test component. Subsequently the ratio ERE stimulation/BRE stimulation (ERE/BRE ratio) was determined, which is indicative for the estrogenic effects of the test component (Table 3).

[1] = system: KS483 (mouse pre-osteoblastic cell line); experiment: Alkaline phosphatase (ALP) activity corrected for DNA in KS483 cells after 18 days exposure; format: cell-based; conditions: for ALP activity (mean ± SEM): 18 days, corrected for DNA, compared to control levels
Method: (§2) KS483 (mouse pre-osteoblastic cell line, Leids Universitair […] Centrum, Leiden, The Netherlands) was maintained in phenol red-free alpha-minimum essential medium (α-MEM) containing 10% non-charcoal-treated fetal bovine serum (FBS) and penicillin/streptomycin. Cells were seeded in 12-well plates at a density of 4.5x10^4 cells/well, and cultured in phenol red-free α-MEM supplemented with penicillin/streptomycin and 10% charcoal-treated FBS. Cells were exposed to vehicle (0.01 wt.% DMSO) , β-estradiol as a positive control (10^-8 M and 10^-9 M in 0.01 wt.% DMSO) or galangin (10^-5 M, 10^-6 M and 10^-7 M in 0.01 wt.% DMSO) for 18 days. From day 4 ascorbic acid (50μg/ml), and from day 11 β-glycerolphosphate (5mM) were added to the culture medium. Every 3-4 days the medium was changed. At day 18, cells were washed twice with ice-cold phosphate buffered saline (PBS), frozen immediately, and stored at -20°C for further use. The cells were lysed in 400μl SSC (15 mM sodium citrate and 150 mM sodium chloride) with 0.01% sodium dodecyl sulfate (SDS). Alkaline phosphatase (ALP) activity was determined kinetically in 25μl aliquots by colorimetric determination of the produced p-nitrophenol at 405 nm, using 6 mmol/L p-nitrophenylphosphate as a substrate at a 37°C and pH 10.5. To correct the ALP activity determination for cell quantity, the DNA content was measured in 100μl aliquots, using Hoechst 33258 and calibrated against a DNA standard (0.5-10μg/mL salmon sperm DNA). Fluorescence was measured at a wavelength of 355-460 nm. Calcium deposition (see Table 2) was determined using the cresolphthalein complexon method according to Henri et al, 1974 (Clinical Biochemistry. Principles and Techniques. Harper and Row, New York, USA. All chemicals were obtained from Sigma-Aldrich (Zwijndrecht, The Netherlands). TABLE 1

[2] = system: KS483 (mouse pre-osteoblastic cell line); experiment: Calcium deposition in KS483 cells (cresolphthalein complexon method); format: cell-based; conditions: for Fold increase of calcium (mean ± SEM): 18 days, compared to control levels
Method: as §2

estrogen receptor = experiment: ERE-Luciferase reporter assay in transiently transfected KS483 cells; format: cell-based, mouse; conditions: 48h
Method: as §1

SAMP6 mice = experiment: Bone mineral density by DXA in senescence accelerated mice prone for osteoporosis (SAMP6); format: in vivo; conditions: for BMD-LS change ( BMDLS) after 10 weeks of treatment / Bone mineral density of the lumbar spine (BMD-LS): female SAMP6 mice, E subcutaneous implant; for BMD-LS change ( BMDLS) after 10 weeks of treatment: age 22 to 32 weeks
Source text: (§3) Senescence accelerated mice prone for osteoporosis (SAMP6) and senescence accelerated resistant mice (SAMR) were obtained from Kyoto University, Kyoto, Japan. Mice were bred and kept under specific pathogen free conditions at the Center for small experimental animals in Wageningen. Procedures were approved by the external independent ethical committee for animal care and use (Zeist, The Netherlands). Female SAMP6 mice were randomized on the basis of body weight at the age 20 weeks and divided in 5 groups. […] The galangin was obtained from ICC, Sommerville, NJ, USA. The mice were treated from the age of 22 weeks to the age of 32 weeks. Animals were housed in pairs at 21°C with a 12-hour light/dark cycle in a room without male mice. Until the age of 22 weeks, animals were fed a complete rodent diet, free of flavonoids and isoflavones (RMH-B, Hope Farms, Woerden, The Netherlands). From 22 to 32 weeks of age, animals were fed diets composed according to the RDA of mice (Nutrient requirements of mice, National Academic press, Wahington, USA,1995) and demineralized water. Composition of all diets was identical, except for their galangin contents. All diets and water were supplied ad libitum. Food and water intake and body weight (BW) was registered weekly. Animals were checked daily for abnormal behavior and appearance. […] Implants were replaced after 6 weeks.
(§4) At the age of 22, 25, 28 and 32 weeks, bone mineral density (BMD) and body composition was determined with the aid of Dual energy X-ray absorptiometry (DXA) (Piximus, Lunar Corp, Madison, WI, USA) using the total body mode. Mice were anaesthetized with halothane and front and hind legs were extended. Bone mineral density of the lumbar spine (BMDLS) and the femur (BMDF) were determined within pre-defined regions of interest. Total body fat percentage was determined using the total body mode.

[3] = system: estrogen receptor (ERE) and BMP receptor (BRE); experiment: Ratio ERE stimulation/BRE stimulation (ERE/BRE ratio) in KS483 cells; format: cell-based, mouse; conditions: for ERE/BRE: ratio ERE stimulation/BRE stimulation
Method: as §1

[4] = Body weight, fat percentage, food and water intake and uterus weight in SAMP6 mice; format: in vivo
Source text: as §3, §4

[5] = age 22 weeks (before start of the intervention), galangin 0.4 mg per 100 g feed
[6] = age 25 weeks, treated from 22 weeks, galangin 0.4 mg per 100 g feed
[7] = age 28 weeks, treated from 22 weeks, galangin 0.4 mg per 100 g feed
[8] = age 32 weeks, treated from 22 weeks, galangin 0.4 mg per 100 g feed
[9] = from 25 weeks of age onwards, subcutaneous implant, intact SAMP6-mice
[10] = compared with control group, SAMP6 mice, galangin throughout the study, E from 25 weeks of age onwards

O=c1c(O)c(-c2ccccc2)oc2cc(O)cc(O)c12 [Gal, 3,5,7-trihydroxyflavone]
BRE (BMP receptor; 10^-5M): 2.0 fold induction | BRE (BMP receptor; 10^-6M): 0.9 fold induction | BRE (BMP receptor; 10^-7M): 0.9 fold induction | ALP activity (mean ± SEM) ([1]; 10^-5M): 3.7 ± 0.152^a fold induction | ALP activity (mean ± SEM) ([1]; 10^-6M): 1.4 ± 0.055^a fold induction | ALP activity (mean ± SEM) ([1]; 10^-7M): 1.1 ± 0.071 fold induction | ALP activity ([1]; result in words): significantly increased | Fold increase of calcium (mean ± SEM) ([2]; 10^-5M): 2.3 ± 0.160^a fold induction | Fold increase of calcium (mean ± SEM) ([2]; 10^-6M): 1.2 ± 0.132 fold induction | Fold increase of calcium (mean ± SEM) ([2]; 10^-7M): 1.3 ± 0.038 fold induction | Calcium deposition ([2]; after treatment, result in words): significantly increased | ERE (estrogen receptor; 10^-5M): 3.8 fold induction | ERE (estrogen receptor; 10^-6M): 1.0 fold induction | ERE (estrogen receptor; 10^-7M): 0.9 fold induction | loss of BMD-LS during the 10-week intervention period compared with controls (SAMP6 mice; 0.04 mg galangin/100 g food (so in the source), SAMP6 mice): significantly lower | % inhibition compared to SAMPC (SAMP6 mice; BMD-LS change after 10 weeks of treatment, galangin 0.4 mg per 100 g feed, SAMP6 mice): 40% | BMD-LS compared with controls (SAMP6 mice; at 32 weeks, 0.4 mg galangin/100 g feed, SAMP6 mice): significantly higher | BMD-LS change ( BMDLS) after 10 weeks of treatment (SAMP6 mice; galangin 0.4 mg per 100 g feed): -14.1 ^a | Bone mineral density of the lumbar spine (BMD-LS) (SAMP6 mice; [5]): 0.0691 g/cm^2 | Bone mineral density of the lumbar spine (BMD-LS) (SAMP6 mice; [6]): 0.0658 g/cm^2 | Bone mineral density of the lumbar spine (BMD-LS) (SAMP6 mice; [7]): 0.0621 g/cm^2 | Bone mineral density of the lumbar spine (BMD-LS) (SAMP6 mice; [8]): 0.0601 ^a g/cm^2 | ERE/BRE ([3]; 10^-5M): 2.0 | ERE/BRE ([3]; 10^-6M): 1.2 | ERE/BRE ([3]; 10^-7M): 1.1 | ratio ERE/BRE relative to kaempherol and quercitin ([3]; galangin ratio as share of the ratio of kaempherol and quercitin): less than 50% | ERE/BRE ratio ([3]; result in words, galangin as compared to kaempherol and quercetin): low | fat percentage ([4]; mouse, in vivo): No statistical differences | food and water intake ([4]; mouse, in vivo): No statistical differences

O=c1c(O)c(-c2ccc(O)cc2)oc2cc(O)cc(O)c12 [K, kaemferol]
BRE (BMP receptor; 10^-5M): 2.4 fold induction | BRE (BMP receptor; 10^-6M): 1.4 fold induction | BRE (BMP receptor; 10^-7M): 1.1 fold induction

O=c1c(O)c(-c2ccc(O)c(O)c2)oc2cc(O)cc(O)c12 [Q, quercetin]
BRE (BMP receptor; 10^-5M): 1.6 fold induction | BRE (BMP receptor; 10^-6M): 1.0 fold induction | BRE (BMP receptor; 10^-7M): 0.9 fold induction | ERE (estrogen receptor; 10^-5M): 7.9 fold induction | ERE (estrogen receptor; 10^-6M): 1.5 fold induction | ERE (estrogen receptor; 10^-7M): 1.4 fold induction | ERE/BRE ([3]; 10^-5M): 5.0 | ERE/BRE ([3]; 10^-6M): 1.6 | ERE/BRE ([3]; 10^-7M): 1.6

C[C@]12CC[C@@H]3c4ccc(O)cc4CC[C@H]3[C@@H]1CC[C@@H]2O [β-E, 17 β-estradiol]
BRE (BMP receptor; 10^-8M): 1.0 fold induction | BRE (BMP receptor; 10^-9M): 1.6 fold induction | BRE (BMP receptor; 10^-10M): 1.0 fold induction | ALP activity (mean ± SEM) ([1]; 10^-8M): 2.6 ± 0.129^a fold induction | ALP activity (mean ± SEM) ([1]; 10^-9M): 2.5 ± 0.184^a fold induction | ERE (estrogen receptor; 10^-8M): 9.0 fold induction | ERE (estrogen receptor; 10^-9M): 15.8 fold induction | ERE (estrogen receptor; 10^-10M): 20.2 fold induction | BMD-LS change ( BMDLS) after 10 weeks of treatment (SAMP6 mice; galangin 0.4 mg per 100 g feed): +23.4 ^a | Bone mineral density of the lumbar spine (BMD-LS) (SAMP6 mice; [5]): 0.0700 g/cm^2 | Bone mineral density of the lumbar spine (BMD-LS) (SAMP6 mice; [6]): 0.0774 g/cm^2 | Bone mineral density of the lumbar spine (BMD-LS) (SAMP6 mice; [7]): 0.08315 g/cm^2 | Bone mineral density of the lumbar spine (BMD-LS) (SAMP6 mice; [8]): 0.0868 ^a g/cm^2 | BMD-F (SAMP6 mice; [9]): significantly higher | BMD-LS (SAMP6 mice; [9]): significantly higher | ERE/BRE ([3]; 10^-8M): 8.6 | ERE/BRE ([3]; 10^-10M): 19.4 | Uterus weight ([4]; at 32 weeks of age, compared with control group, SAMP6 mice): significantly higher | body weight [4, 10]: significantly lower | fat percentage [4, 10]: significantly lower | food and water intake [4, 10]: significantly lower
